# Article PMC12366525, “Characterization of allosteric modulators that disrupt androgen receptor co-activator protein-protein interactions to alter transactivation–Drug leads for metastatic castration resistant prostate cancer” (SLAS discovery : advancing life sciences R & D, 2023)
# Several values for one entry are separate records, joined by “and”; a condition that tells them apart may be missing. Equal values may be shown once.
# Columns and labels:
# Type in all cases: cell-based
# [1] = C4–2 PSA6.1-Luc viability counter screen; conditions: human, C4–2 cells (C4–2 PSA6.1-Luc); cytotoxicity counter screen; read-out: C4–2 PSA6.1-Luc viability CS GI50
# AR-V7 [2] = biological target: T1, AR-V7 (Homo sapiens, UniProt P10275); experiment: PSA6.1 promoter driven luciferase reporter assay in PC3-AR-V7-GFP cells; conditions: constitutive, 24 h; read-out: PC-3-ARV7-GFP PSA6.1-Luc Reporter IC50
# T1 construct: expressed in transfected cells; host or cells: PC3 cells stably expressing AR-V7-GFP
# T1 sequence (P10275 1-644 isoform P10275-3): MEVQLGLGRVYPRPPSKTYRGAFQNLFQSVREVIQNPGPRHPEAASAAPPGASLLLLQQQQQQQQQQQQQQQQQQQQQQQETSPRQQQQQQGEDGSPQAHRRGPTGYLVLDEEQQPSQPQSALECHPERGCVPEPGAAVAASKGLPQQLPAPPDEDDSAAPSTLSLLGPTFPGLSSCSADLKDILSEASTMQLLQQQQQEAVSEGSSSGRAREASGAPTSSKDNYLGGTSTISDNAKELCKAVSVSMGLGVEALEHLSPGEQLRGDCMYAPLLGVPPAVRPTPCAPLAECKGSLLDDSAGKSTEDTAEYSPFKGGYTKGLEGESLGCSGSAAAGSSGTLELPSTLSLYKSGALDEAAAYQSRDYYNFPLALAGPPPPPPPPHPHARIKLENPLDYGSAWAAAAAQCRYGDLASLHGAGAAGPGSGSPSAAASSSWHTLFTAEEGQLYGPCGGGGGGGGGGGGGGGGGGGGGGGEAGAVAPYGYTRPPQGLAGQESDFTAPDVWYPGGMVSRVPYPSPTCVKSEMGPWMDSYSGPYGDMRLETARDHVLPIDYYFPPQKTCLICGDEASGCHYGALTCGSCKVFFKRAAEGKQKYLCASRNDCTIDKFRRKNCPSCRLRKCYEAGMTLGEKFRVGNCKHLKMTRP
# Method: PC3-AR-V7-GFP cells were bulk transfected with a mixture of Fugene HD and the PSA-6.1-Luc reporter plasmid (20 ng/well) combined at a 3:1 (μL:μg) ratio in Opti-MEM (Gibco, Gaithersburg, MD) that had been incubated for 25 min at RT before being added to PC3-AR-V7-GFP cells that were suspended in RPMI 1640 (Gibco) media containing 1% L-glutamine (Invitrogen), and 10% fetal bovine serum (Gemini Bio-products). Bulk transfected PC3-AR-V7-GFP cells were seeded into white opaque 384-well assay plates (Greiner Bio-one, #781080) at 3000 cells per well in a volume of 40 μL and incubated at 5% CO2, 37 °C, and 95% humidity for 24 h. After 24 h, 5 μL of compounds were transferred to assay wells and the plates were returned to the incubator for an additional 24 h before 25 μL of BrightGlo luciferase reagent (Promega) was added to the wells and the RLU’s were captured on a SpectraMax M5e plate reader (Molecular Devices LLC) as described previously.
# AR-LBD and SRC1 = biological target: T2, AR-LBD and SRC1 (Homo sapiens, UniProt P10275); experiment: SRC1 mammalian 2-hybrid (M2H) assay; conditions: HEK 293 cells; 25 nM DHT; 27 h compound exposure; read-out: M2H AR-SRC1 CoA Recruitment IC50
# T2 construct: AR-LBD amino acids 658–919 expressed as a fusion protein with Gal4-DBD; expressed in transfected cells; host or cells: HEK 293
# T2 sequence (P10275 658-919): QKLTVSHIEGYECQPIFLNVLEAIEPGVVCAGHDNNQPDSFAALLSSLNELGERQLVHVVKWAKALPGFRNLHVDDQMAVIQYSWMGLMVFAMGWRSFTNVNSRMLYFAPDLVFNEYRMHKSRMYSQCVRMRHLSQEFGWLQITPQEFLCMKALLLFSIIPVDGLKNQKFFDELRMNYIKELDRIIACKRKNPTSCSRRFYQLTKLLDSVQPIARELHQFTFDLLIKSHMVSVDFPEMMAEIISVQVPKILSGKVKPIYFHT
# Source text: The 5xGAL4-TATA-luciferase reporter plasmid was a gift from Dr. Richard Maurer from the Oregon Health and Science University, and constructs pGAL4-hAR-658–919 (AR-LBD amino acids 658–919 expressed as a fusion protein with Gal4-DBD), pVP16-SRC1 (full--length SRC1 expressed as a fusion with VP16 activation domain) and pVP16-Empty vector were kindly provided to us by Dr. Elizabeth Wilson, from UNC Chapel Hill. pVP16-TIF2 was generated as described previously. HEK 293 cells were transiently co-transfected with 5 ng of pGal4-AR-LBD, 10 ng of either pVP16-TIF2 or pVP16-SRC1, and 20 ng of the 5xGal4-TATA-Luc reporter as described previously. HEK 293 cells were bulk co-transfected with the three plasmids that had been individually incubated with Fugene 6 at a 3:1 ratio for 25 min at room temperature (RT) in serum free media (SFM) and then combined with HEK 293 cells that were suspended in DMEM (Cellgro10013CV) with 2 mM L-glutamine (Invitrogen) that was supplemented with 10% fetal bovine serum, and 5000 cells in a volume of 40 μL were seeded into the wells of white opaque 384-well assay plates (Greiner Bio-one, #781080) and cultured overnight at 37 °C, 5% CO2, and 95% humidity. […] 25 μL of BrightGlo® reagent was added to the plate and the relative luminescence units (RLUs) were captured on a SpectraMax M5e microtiter plate reader (Molecular Devices, LLC, San Jose, CA).
# AR-V7 [3] = biological target: T1, AR-V7; experiment: UBE2C promoter driven luciferase reporter assay in PC3-AR-V7-GFP cells; conditions: constitutive, 24 h; read-out: PC-3-ARV7-GFP UBE2C-Luc Reporter IC50
# Method: The pGL4.28-UBE2C 20bpX3 luciferase reporter plasmid was provided by Dr. Yan Dong from Tulane University. Fugene HD and the UBE2C-Luc plasmid (10 ng/well) were combined at a 3:1 (μL:μg) ratio, in Opti-MEM and incubated for 25 min at RT before being added to PC3-AR-V7-GFP cells that were suspended in RPMI 1640 (Gibco) media containing 1% L-glutamine (Invitrogen), and 10% fetal bovine serum (Gemini Bio-products). Bulk transfected PC3-AR-V7-GFP cells were seeded into white opaque 384-well assay plates (Greiner Bio-one, #781080) at a density of 3000 cell per well in a volume of 40 μL and incubated at 5% CO2, 37 °C, and 95% humidity for 24 h. After 24 h, 10 μL of compounds were transferred to assay wells and the plates were returned to the incubator for an additional 24 h before 25 μL of BrightGlo luciferase reagent (Promega) was added to the wells and the RLU’s were captured on a SpectraMax M5e plate reader (Molecular Devices LLC) as described previously.
SMILES,IC50 (AR-V7 [2]),IC50 (AR-LBD and SRC1) [µM],IC50 (AR-V7 [3]) [µM],GI50 [1] [µM]
Cc1ccccc1-c1cc(O)c2c(c1)CN(c1nc(C(N)=O)cs1)CCO2 [S1–1],33.5 µM,3.57,34.7,> 100
Cc1ccccc1-c1cc(O)c2c(c1)CN(c1nccs1)CCO2 [S1–3],,5.19,,
Cc1nsc(NC(=O)N2CCC(Sc3ccccc3C)CC2)n1 [S2–6],8 µM and 7.88 µM,0.46,14.5,> 100
Cc1c(-c2ccccc2F)[nH]c2ccc(CNC(=O)CCc3cnccn3)cc12 [S3–12],8.17 µM,3.93,17.7,> 100
CC(=O)NCCC(=O)NCc1ccc2[nH]c(-c3ccccc3F)c(C)c2c1 [S3–13],51.7 µM,11.7,,> 100

# The next lines start with results.
IC50 (AR-V7 [2]),IC50 (AR-LBD and SRC1) [µM],IC50 (AR-V7 [3]) [µM],SMILES,GI50 [1] [µM]
10.7 µM,4.79,21,Cc1c(-c2ccccc2F)[nH]c2ccc(CNC(=O)CCc3cn[nH]c3)cc12 [S3–11],> 100
43.9 µM,2.5,46,Cc1c(-c2ccccc2F)[nH]c2ccc(CNC(=O)c3ccc(CO)o3)cc12 [S3–14],> 100
10.1 µM,2.99,18.5,Cc1c(-c2ccc(F)cc2)[nH]c2ccc(CNC(=O)c3ccc(CO)o3)cc12 [S3–15],> 100
